Test results published in patent US20060293315A1, “Intermediates of novel heterocyclic compounds having antibacterial activity and process for their preparation” (Dr. Reddy's Laboratories Ltd., priority 2001, published 2006).

| SMILES | melting point |
| --- | --- |
| NC[C@H]1CN(c2ccc(N3CCOC3=O)c(F)c2)C(=O)O1 [Example 53] | 147 °C |
| NC[C@H]1CN(c2ccc(N3CCOC3=O)cc2)C(=O)O1 [Example 59] | 189 to 191 °C |
| CCC(=O)NC[C@H]1CN(c2ccc(N3CCOC3=O)c(F)c2)C(=O)O1 [Example 67] | 203 °C |
| CCCC(=O)NC[C@H]1CN(c2ccc(N3CCOC3=O)c(F)c2)C(=O)O1 [Example 68] | 211 °C |
| CCCCC(=O)NC[C@H]1CN(c2ccc(N3CCOC3=O)c(F)c2)C(=O)O1 [Example 69] | 187 °C |
| CCCCCCC(=O)NC[C@H]1CN(c2ccc(N3CCOC3=O)c(F)c2)C(=O)O1 [Example 70] | 131 °C |
| C=CC(=O)NC[C@H]1CN(c2ccc(N3CCOC3=O)c(F)c2)C(=O)O1 [Example 71] | 196 °C |
| O=C1O[C@@H](CNC(=O)C(F)(F)F)CN1c1ccc(N2CCOC2=O)c(F)c1 [Example 72] | 194 °C |
| CCOC(=O)C(=O)NC[C@H]1CN(c2ccc(N3CCOC3=O)c(F)c2)C(=O)O1 [Example 73] | 160 °C |
| CC(=O)NC[C@H]1CN(c2ccc(N3CCSC3=S)c(F)c2)C(=O)O1 [Example 76] | 220 °C |
| CC(=O)NC[C@H]1CN(c2ccc(N3CCN(C)C3=S)c(F)c2)C(=O)O1 [Example 77] | 171 °C |
| CC(=O)NC[C@H]1CN(c2ccc(-n3c(=O)oc4cc(C)ccc43)c(F)c2)C(=O)O1 [Example 79] | 213 °C |
| CC(=O)NC[C@H]1CN(c2ccc(-n3c(=O)oc4ccc(C)cc43)c(F)c2)C(=O)O1 [Example 80] | 202 °C |
| CC(=O)NC[C@H]1CN(c2ccc(N3CCOC3=O)c(C(F)(F)F)c2)C(=O)O1 [Example 81] | 143 °C |
| CCC(=O)NC[C@H]1CN(c2ccc(N3CCOC3=O)c(C(F)(F)F)c2)C(=O)O1 [Example 82] | 143 °C |
| C=CC(=O)NC[C@H]1CN(c2ccc(N3CCOC3=O)c(C(F)(F)F)c2)C(=O)O1 [Example 84] | 191 °C |
| CC(=O)NC[C@H]1CN(c2ccc(N3CCOC3=O)cc2F)C(=O)O1 [Example 85] | 120 °C |
| CC(=O)NC[C@H]1CN(c2cc(F)c(N3CCOC3=O)c(F)c2)C(=O)O1 [Example 86] | 219 °C |
| CCC(=O)NC[C@H]1CN(c2cc(F)c(N3CCOC3=O)c(F)c2)C(=O)O1 [Example 87] | 224 °C |
| CC(=O)NC[C@H]1CN(c2ccc(N3CCOC3=O)cc2)C(=O)O1 [Example 88] | 231 °C |
| CC(=O)NC[C@H]1CN(c2ccc(-n3c(=O)oc4ccccc43)cc2)C(=O)O1 [Example 89] | 229 °C |
| CC(=O)NC[C@H]1CN(c2ccc(N3CC(=O)N(C)C3)c(F)c2)C(=O)O1 [Example 90] | 230 °C |
| CC(=O)NC[C@H]1CN(c2ccc(N3CCN(C)C3=O)c(F)c2)C(=O)O1 [Example 92] | 182 °C |
| CC(=O)NC[C@H]1CN(c2ccc(N3CCN(C)C3=O)cc2)C(=O)O1 [Example 93] | 217 °C |
| CC(=O)NC[C@H]1CN(c2ccc(N3CCN(Cc4ccccc4)C3=O)cc2)C(=O)O1 [Example 94] | 204 °C |
| CC(=O)NC[C@H]1CN(c2ccc(N3CCN(c4ccccc4)C3=O)c(F)c2)C(=O)O1 [Example 95] | 182 °C |

| SMILES | melting point |
| --- | --- |
| CC(=O)NC[C@H]1CN(c2ccc(N3CCN(c4ccc(F)cc4)C3=O)c(F)c2)C(=O)O1 [Example 96] | 194 °C |
| CC(=S)NC[C@H]1CN(c2ccc(N3CCOC3=O)c(F)c2)C(=O)O1 [Example 98] | 171 °C |
| O=C1O[C@@H](CNC(=S)CC(F)(F)F)CN1c1ccc(N2CCOC2=O)c(F)c1 [Example 99] | 165 °C |
| CC(=S)NC[C@H]1CN(c2ccc(N3CCN(C)C3=S)c(F)c2)C(=O)O1 [Example 100] | 111 °C |
| CC(=S)NC[C@H]1CN(c2ccc(-n3c(=O)oc4ccccc43)c(F)c2)C(=O)O1 [Example 101] | 137 °C |
| CC(=S)NC[C@H]1CN(c2ccc(N3CCOC3=O)c(C(F)(F)F)c2)C(=O)O1 [Example 102] | 154 °C |
| CC(=S)NC[C@H]1CN(c2cc(F)c(N3CCOC3=O)c(F)c2)C(=O)O1 [Example 103] | 108 °C |
| CCC(=S)NC[C@H]1CN(c2cc(F)c(N3CCOC3=O)c(F)c2)C(=O)O1 [Example 104] | 168 °C |
| CC(=S)NC[C@H]1CN(c2ccc(N3CCOC3=O)cc2)C(=O)O1 [Example 105] | 195 °C |
| CC(=S)NC[C@H]1CN(c2ccc(N3CCN(c4ccccc4)C3=O)c(F)c2)C(=O)O1 [Example 106] | 165 °C |
| CC(=S)NC[C@H]1CN(c2cc(F)c(N3CNC(=O)C3)c(F)c2)C(=O)O1 [Example 108] | 148 to 150 °C |
| COC(=O)NC[C@H]1CN(c2ccc(N3CCOC3=O)c(F)c2)C(=O)O1 [Example 109] | 153 °C |
| COC(=O)NC[C@H]1CN(c2ccc(N3CCOC3=O)c(C(F)(F)F)c2)C(=O)O1 [Example 110] | 148 °C |
| COC(=O)NC[C@H]1CN(c2cc(F)c(N3CCOC3=O)c(F)c2)C(=O)O1 [Example 111] | 157 °C |
| COC(=O)NC[C@H]1CN(c2ccc(N3CCOC3=O)cc2)C(=O)O1 [Example 112] | 195 °C |
| COC(=O)NC[C@H]1CN(c2ccc(N3CC(=O)N(C)C3)c(F)c2)C(=O)O1 [Example 113] | 226 °C |
| CSC(=S)NC[C@H]1CN(c2ccc(N3CCOC3=O)cc2)C(=O)O1 [Example 114] | 161 °C |
| CSC(=S)NC[C@H]1CN(c2cc(F)c(N3CCOC3=O)c(F)c2)C(=O)O1 [Example 115] | 147 °C |
| COC(=S)NC[C@H]1CN(c2ccc(N3CCOC3=O)c(F)c2)C(=O)O1 [Example 119] | 137 °C |
| CCOC(=S)NC[C@H]1CN(c2ccc(N3CCOC3=O)c(F)c2)C(=O)O1 [Example 120] | 208 °C |
| O=C1O[C@@H](CNC(=S)OC(=O)C(F)(F)F)CN1c1ccc(N2CCOC2=O)c(F)c1 [Example 121] | 184 °C |
| O=C1OCCN1c1ccc(N2C[C@H](CNC(=S)OC3CCCCC3)OC2=O)cc1 [Example 122] | 153 °C |
| COC(=S)NC[C@H]1CN(c2ccc(N3CCOC3=O)c(F)c2)C(=O)O1 [Example 123] | 197 °C |
| CCOC(=S)NC[C@H]1CN(c2ccc(N3CCN(C)C3=S)c(F)c2)C(=O)O1 [Example 124] | 197 °C |
| CCCOC(=S)NC[C@H]1CN(c2ccc(N3CCN(C)C3=S)c(F)c2)C(=O)O1 [Example 125] | > 200 °C |
| COC(=S)NC[C@H]1CN(c2ccc(N3CCN(C)C3=S)c(F)c2)C(=O)O1 [Example 126] | 179 °C |

| SMILES | melting point |
| --- | --- |
| CC(C)OC(=S)NC[C@H]1CN(c2ccc(N3CCN(C)C3=S)c(F)c2)C(=O)O1 [Example 127] | 183 °C |
| COC(=S)NC[C@H]1CN(c2ccc(N3CCOC3=O)c(C(F)(F)F)c2)C(=O)O1 [Example 128] | 146 °C |
| CCOC(=S)NC[C@H]1CN(c2ccc(N3CCOC3=O)c(C(F)(F)F)c2)C(=O)O1 [Example 129] | 157 °C |
| COC(=S)NC[C@H]1CN(c2cc(F)c(N3CCOC3=O)c(F)c2)C(=O)O1 [Example 130] | 182 °C |
| COC(=S)NC[C@H]1CN(c2ccc(N3CCOC3=O)cc2)C(=O)O1 [Example 131] | 153 °C |
| CCOC(=S)NC[C@H]1CN(c2ccc(N3CCOC3=O)cc2)C(=O)O1 [Example 132] | 168 °C |
| CCCOC(=S)NC[C@H]1CN(c2ccc(N3CCOC3=O)cc2)C(=O)O1 [Example 133] | 176 °C |
| O=C1OCCN1c1ccc(N2C[C@H](CNC(=S)OCC(F)(F)F)OC2=O)cc1 [Example 134] | 181 °C |
| O=C1OCCN1c1ccc(N2C[C@H](CNC(=S)OCCO)OC2=O)cc1 [Example 135] | 141 °C |
| COCCOC(=S)NC[C@H]1CN(c2ccc(N3CCOC3=O)cc2)C(=O)O1 [Example 136] | 149 °C |
| C=CCOC(=S)NC[C@H]1CN(c2ccc(N3CCOC3=O)cc2)C(=O)O1 [Example 137] | 150 °C |
| CC(C)OC(=S)NC[C@H]1CN(c2ccc(N3CCOC3=O)cc2)C(=O)O1 [Example 138] | 140 °C |
| COC(=S)NC[C@H]1CN(c2ccc(-n3c(=O)oc4ccccc43)cc2)C(=O)O1 [Example 139] | 141 °C |
| CCOC(=S)NC[C@H]1CN(c2ccc(-n3c(=O)oc4ccccc43)cc2)C(=O)O1 [Example 140] | 147 °C |
| COC(=S)NC[C@H]1CN(c2ccc(N3CC(=O)N(C)C3)c(F)c2)C(=O)O1 [Example 141] | 218 °C |
| COC(=S)NC[C@H]1CN(c2ccc(N3CCN(C)C3=O)cc2)C(=O)O1 [Example 142] | 209 °C |
| COC(=S)NC[C@H]1CN(c2ccc(N3CC(=O)N(C)C3)cc2)C(=O)O1 [Example 143] | 205 °C |
| COC(=S)NC[C@H]1CN(c2ccc(N3CCN(C)C3=O)c(F)c2)C(=O)O1 [Example 144] | 146 °C |
| COC(=S)NC[C@H]1CN(c2ccc(N3CCN(Cc4ccccc4)C3=O)cc2)C(=O)O1 [Example 145] | 170 °C |
| CCOC(=S)NC[C@H]1CN(c2ccc(N3CCN(Cc4ccccc4)C3=O)cc2)C(=O)O1 [Example 146] | 160 °C |
| COC(=S)NC[C@H]1CN(c2ccc(N3CCN(c4ccccc4)C3=O)c(F)c2)C(=O)O1 [Example 147] | 174 °C |
| CCOC(=S)NC[C@H]1CN(c2ccc(N3CCN(c4ccccc4)C3=O)c(F)c2)C(=O)O1 [Example 148] | 195 °C |
| COC(=S)NC[C@H]1CN(c2ccc(N3CCN(c4ccc(F)cc4)C3=O)c(F)c2)C(=O)O1 [Example 149] | 208 °C |
| CCOC(=S)NC[C@H]1CN(c2ccc(N3CCN(c4ccc(F)cc4)C3=O)c(F)c2)C(=O)O1 [Example 150] | 215 °C |
| CC(C)OC(=S)NC[C@H]1CN(c2ccc(N3CCN(c4ccc(F)cc4)C3=O)c(F)c2)C(=O)O1 [Example 151] | 220 °C |
| CN(C)CCOC(=S)NC[C@H]1CN(c2ccc(N3CCOC3=O)cc2)C(=O)O1 [Example 152] | 161 °C |
